Measurements reported in PMC12656329, “Specific Hepatorenal Toxicity and Cross-Species Susceptibility of Eight Representative Pesticides” (Toxics, 2025).
“Also recorded” adds a separate entry of the source. Read-outs that look alike come from different tables or passages of the source.

Tests used:
[1] = ref PPDB: Pesticide Properties DataBase, cited from earlier work
293T renal cells [2] = assay: CCK-8 cytotoxicity assay, 293T; assay type: cell-based, human; conditions: CCK-8, 24 h exposure; for IC50: Homo sapiens, HEK-293T, 24 h
Protocol: (§1) Human embryonic kidney 293T (HEK293T) cells and rat renal NRK cells were maintained in high-glucose DMEM supplemented with 10% fetal bovine serum (FBS) and 1% penicillin–streptomycin at 37 °C under 5% CO2 until reaching 70–80%. Human liver CCC-HEL-1 cells were cultured under identical conditions but with 20% FBS, while rat normal hepatocytes were grown in high-glucose MEM containing 20% FBS and 1% penicillin–streptomycin. Stock solutions (500 g/L) of eight pesticide standards were prepared in dimethyl sulfoxide (DMSO) and stored at −20 °C. Working concentrations were freshly diluted in serum-containing culture medium prior to each experiment.
(§2) The cytotoxicity of eight pesticides on four mammalian cell lines was assessed using the Cell Counting Kit-8 (CCK-8) assay. Initially, stock solutions of each pesticide were prepared by dissolving the compound in dimethyl sulfoxide (DMSO) to a final concentration of 500 g/L. For the assay, cells were seeded into 96-well plates at a density of 2 × 10^4 cells per well in 100 µL of medium and incubated for 24 h at 37 °C under a 5% CO2 atmosphere to allow for attachment. Subsequently, the culture medium was replaced with fresh medium containing the pesticides at a series of final concentrations (0, 10, 100, 200, 400, 800, 1000, and 2500 mg/L). Pesticide working concentrations were prepared through serial dilution of the 500 g/L DMSO stock solution, resulting in variable final DMSO concentrations across treatment groups (ranging from 0.002% to 0.5% v/v). A media-only blank (no cells) was included for background absorbance correction, and a solvent control (0.1% DMSO, no pesticide) was used to account for any vehicle effects. All conditions were performed in five replicates. […] At DMSO concentrations ranging from 0.1% to 0.2%, the viability of all four cell lines remained stable above 80%. At a 1% DMSO concentration, the viability of all four cell types was around 50% or higher (Supplementary Figure S5). Following 24 h of exposure, 10 µL of CCK-8 reagent was added to each well. Absorbance Measurement: After an additional 1 h of incubation in the dark, the optical density (OD) at 450 nm was recorded using a microplate reader. Cell viability was calculated by comparing the OD values of treated groups with those of the blank control. Although some test concentrations exceeded the water solubility of the pesticides, the combination of DMSO and serum in the culture medium maintained a uniform exposure system. No precipitation was observed during the experiment, ensuring that the measured effects are attributed to the bioavailable fraction of the compound. […]
(§3) 1. Pesticide Exposure: After removing the medium, fresh medium containing gradient concentrations (0–2500 mg/L) of each pesticide was added (five replicates per concentration).
(§4) Following 24 h of exposure, 10 µL of CCK-8 reagent was added to each well.
(§5) 2. Absorbance Measurement: After 1 h of dark incubation, the OD at 450 nm was measured using a microplate reader.
(§6) 3. Cell Viability Calculation: Viability was determined by comparing the OD values of treated groups to the blank control. […]

[3] = system: four mammalian cell lines (CCC-HEL-1, 293T, IAR, NRK); assay: CCK-8 cytotoxicity, statements across the four cell lines; assay type: cell-based, human and rat; conditions: CCK-8 / heatmap of OD values
Protocol: The cytotoxicity of eight pesticides on four mammalian cell lines was assessed using the Cell Counting Kit-8 (CCK-8) assay. Initially, stock solutions of each pesticide were prepared by dissolving the compound in dimethyl sulfoxide (DMSO) to a final concentration of 500 g/L. For the assay, cells were seeded into 96-well plates at a density of 2 × 10^4 cells per well in 100 µL of medium and incubated for 24 h at 37 °C under a 5% CO2 atmosphere to allow for attachment. Subsequently, the culture medium was replaced with fresh medium containing the pesticides at a series of final concentrations (0, 10, 100, 200, 400, 800, 1000, and 2500 mg/L). Pesticide working concentrations were prepared through serial dilution of the 500 g/L DMSO stock solution, resulting in variable final DMSO concentrations across treatment groups (ranging from 0.002% to 0.5% v/v). A media-only blank (no cells) was included for background absorbance correction, and a solvent control (0.1% DMSO, no pesticide) was used to account for any vehicle effects. All conditions were performed in five replicates. […] At DMSO concentrations ranging from 0.1% to 0.2%, the viability of all four cell lines remained stable above 80%. At a 1% DMSO concentration, the viability of all four cell types was around 50% or higher (Supplementary Figure S5). Following 24 h of exposure, 10 µL of CCK-8 reagent was added to each well. Absorbance Measurement: After an additional 1 h of incubation in the dark, the optical density (OD) at 450 nm was recorded using a microplate reader. Cell viability was calculated by comparing the OD values of treated groups with those of the blank control. Although some test concentrations exceeded the water solubility of the pesticides, the combination of DMSO and serum in the culture medium maintained a uniform exposure system. No precipitation was observed during the experiment, ensuring that the measured effects are attributed to the bioavailable fraction of the compound.

Rat = conditions: cited from earlier work
CCC-HEL-1 hepatocytes [4] = conditions: CCC-HEL-1 cells, 24 h exposure at median lethal concentration, vs control
CCC-HEL-1 hepatocytes [5] = assay: CCK-8 cytotoxicity assay, CCC-HEL-1; assay type: cell-based; conditions: Homo sapiens, Hepatocyte; CCK-8, 24 h exposure
Protocol: as §1, §2, §3, §4, §5, §6

NRK renal cells = assay: CCK-8 cytotoxicity assay, NRK; assay type: cell-based; conditions: Rattus norvegicus; CCK-8, 24 h exposure
Protocol: as §1, §2, §3, §4, §5, §6

IAR hepatocytes = assay: CCK-8 cytotoxicity assay, IAR; assay type: cell-based; conditions: Rattus norvegicus, Hepatocyte; CCK-8, 24 h exposure
Protocol: as §1, §2, §3, §4, §5, §6

MRP2 in 293T renal cells = assay: MRP2 immunofluorescence staining, 293T; assay type: cell-based, human; conditions: 293T cells, 24 h at IC50, immunofluorescence, vs untreated controls
Protocol: Cells were seeded at a density of 1 × 10^5 cells per well in immunofluorescence-specific glass-bottom dishes and allowed to adhere for 24 h. […] Following treatment, cells were fixed with 4% paraformaldehyde for 15 min at room temperature and permeabilized with 0.1% Triton X-100 for 10 min. Non-specific binding was blocked with 5% bovine serum albumin (BSA) for 1 h at room temperature. Cells were then incubated with primary antibody against MRP2 (1:300 dilution) overnight at 4 °C. After three washes with PBS, cells were treated with secondary antibody (rabbit anti-IgG, 1:600 dilution) for 1 h at room temperature and washed three times with PBS. Anti-MRP2 antibody (Abcam, ab172630) and Alexa Fluor® 488-conjugated anti-rabbit IgG secondary antibody (Cell Signaling Technology, Danvers, MA, USA, 4412) were used for immunofluorescence staining. Nuclei were counterstained with DAPI Staining Solution (C1005, 10 mL) (Beyotime Biotechnology, Shanghai, China). Fluorescent images were captured using a 10× inverted fluorescence microscope. Quantitative analysis of fluorescence intensity was performed using ImageJ software 2.1.0 (National Institutes of Health, Bethesda, MD, USA).

293T renal cells [6] = assay: ELISA of toxicity biomarkers (LDH, KIM-1) in culture supernatant, 293T; assay type: cell-based, human; conditions: 293T cells, 24 h exposure at median lethal concentration, vs control
Protocol: The levels of hepatotoxicity biomarkers (ALT, AST, ALP) and nephrotoxicity biomarkers (KIM-1, LDH) in cell culture supernatant were quantified using commercially available ELISA kits (Cloud-Clone Corp., Wuhan, China). 100 μL of the supernatant was added to the pre-coated wells and incubated according to the manufacturer’s protocol (five replicates). After washing, the appropriate detection antibody and substrate were added, and the absorbance was measured at 450 nm using microplate reader. The concentrations of the biomarkers were determined based on standard curves.

[7] = metabolite of chlorpyrifos; ref [3] (Huen et al. 2012, ref 76); cited from earlier work
Colinus virginianus = conditions: in vivo; cited from earlier work
[8] = cell lines as stated in the sentence
[9] = Rat, ref PPDB: Pesticide Properties DataBase

| Structure (SMILES) | ADI - Acceptable Daily Intake ([1]; Rat SF=100) | IC50 (293T renal cells [2]) | cytotoxicity (in words) [3, 8] | Mammals - Acute oral LD50 (Rat; [9]) | AST level (CCC-HEL-1 hepatocytes [4]) | IC50 (CCC-HEL-1 hepatocytes [5]) | IC50 (NRK renal cells) | IC50 (IAR hepatocytes) | LDH level (CCC-HEL-1 hepatocytes [4]) | also measured |
| --- | --- | --- | --- | --- | --- | --- | --- | --- | --- | --- |
| N#Cc1c(Cl)c(Cl)c(Cl)c(C#N)c1Cl [Chlorothalonil, chlorothalonil] | 0.015 mg kg⁻¹ bw day⁻¹ | 32.5 µg/mL | relatively lower cytotoxicity at specific concentrations | > 5000 mg/kg | marked suppression | 48.1 µg/mL | 55.6 µg/mL | 21.3 µg/mL | – | 293T IC50 (293T renal cells [2]): 32.6 µg/mL; cytotoxicity (in words) ([3]; cell lines as stated in the sentence, listed as chlorothalonil): strongest cytotoxicity; also recorded: most cytotoxic agent |
| CCOP(=S)(OCC)Oc1nc(Cl)c(Cl)cc1Cl [Chlorpyrifos, chlorpyrifos] | 0.001 mg kg⁻¹ bw day⁻¹ | 444 µg/mL | – | 66 mg/kg | marked suppression | 633 µg/mL | 990 µg/mL | 898 µg/mL | most dramatic LDH elevation | cytotoxicity (in words) [3]: lowest toxicity; also recorded: minimal direct cytotoxicity; MRP2 protein level (MRP2 in 293T renal cells): most pronounced effect; also recorded: most pronounced downregulation; KIM-1 expression (293T renal cells [6]): significantly decreased; also recorded: statistically significant downregulation |
| CC1COC(Cn2cncn2)(c2ccc(Oc3ccc(Cl)cc3)cc2Cl)O1 (stereo not shown) [Difenoconazole, difenoconazole] | 0.01 mg kg⁻¹ bw day⁻¹ | 209 µg/mL | strong cytotoxic effects | – | increased levels | 374 µg/mL | 498 µg/mL | 132 µg/mL | – | ALT level (CCC-HEL-1 hepatocytes [4]): reduced ALT activity; AST level (CCC-HEL-1 hepatocytes [4]; listed as difenoconazole): elevated AST levels; KIM-1 expression (293T renal cells [6]): significantly decreased |
| Cc1cc(C)nc(Nc2ccccc2)n1 [Pyrimethanil, pyrimethanil] | 0.17 mg kg⁻¹ bw day⁻¹ | 111 µg/mL | – | 4150 mg/kg | – | 505 µg/mL | 192 µg/mL | 362 µg/mL | LDH elevation | ALP level (CCC-HEL-1 hepatocytes [4]): isolated ALP elevation; ALT level (CCC-HEL-1 hepatocytes [4]): normal ALT levels; ALP level (CCC-HEL-1 hepatocytes [4]; listed as pyrimethanil): substantial increases; LDH release (293T renal cells [6]): significantly elevated LDH release; LDH release (293T renal cells [6]; listed as pyrimethanil): significantly increased |
| Oc1nc(Cl)c(Cl)cc1Cl [TCPy, 3,5,6-Trichloro-2-pyridinol] | – | – | – | – | – | – | – | – | – | Toxicokinetic Parameter (Concentration), highest level [7]: 6.27 ng/mL |
| CC(C)(C)C(O)(CCc1ccc(Cl)cc1)Cn1cncn1 (stereo not shown) [Tebuconazole, tebuconazole] | – | 41.5 µg/mL | relatively lower cytotoxicity at specific concentrations | – | – | 135 µg/mL | 171 µg/mL | 188 µg/mL | LDH elevation | ADI - Acceptable Daily Intake ([1]; Dog SF=100): 0.03 mg kg⁻¹ bw day⁻¹; Mammals - Acute oral LD50 (Rat; rat, in vivo, po): 1700; ALP level (CCC-HEL-1 hepatocytes [4]): concurrent elevations of both ALT and ALP; ALP level (CCC-HEL-1 hepatocytes [4]; listed as tebuconazole): substantial increases; Birds - Acute LD50 (Colinus virginianus): 1988 |
| CC(C)(C)C(=O)C(Oc1ccc(Cl)cc1)n1cncn1 (stereo not shown) [Triadimefon, triadimefon] | – | 107 µg/mL | strong cytotoxic effects | – | – | 219 µg/mL | 977 µg/mL | 878 µg/mL | – | ADI - Acceptable Daily Intake ([1]; basis species not given): 0.03 mg kg⁻¹ bw day⁻¹ |
